The values below come from ChEMBL document CHEMBL3044879, “Design, synthesis, and preliminary in vitro and in vivo pharmacological evaluation of 4-{4-[2-(4-(2-substitutedquinoxalin-3-yl)piperazin-1-yl)ethyl]phenyl}thiazoles as atypical antipsychotic agents” (Med Chem Res, 2013).

Molecules are shown by their SMILES. Activity calls are given as the source filed them. The rule behind the calls is not given here.

Data set [1] has as its target D(2) dopamine receptor (Rattus norvegicus) (UniProt P61169). Put plainly: Displacement of [3H]spiperone from dopaminergic D2 receptor in Rattus norvegicus (rat) straitum membrane homogenates up to 1 uM after 60 min by liquid scintillation counting analysis. (In general: Displacement assays read how much labelled ligand stays bound in the presence of the test substance.)

Data set [2] deals with 5-hydroxytryptamine receptor 2A (Rattus norvegicus) (UniProt P14842). Put plainly: Displacement of [3H]ketanserin from 5-HT2A receptor in Rattus norvegicus (rat) cortex membrane homogenates at 10 uM after 90 min by liquid scintillation counting analysis.
Chain of 5-hydroxytryptamine receptor 2A (Rattus norvegicus) (P14842 whole entry): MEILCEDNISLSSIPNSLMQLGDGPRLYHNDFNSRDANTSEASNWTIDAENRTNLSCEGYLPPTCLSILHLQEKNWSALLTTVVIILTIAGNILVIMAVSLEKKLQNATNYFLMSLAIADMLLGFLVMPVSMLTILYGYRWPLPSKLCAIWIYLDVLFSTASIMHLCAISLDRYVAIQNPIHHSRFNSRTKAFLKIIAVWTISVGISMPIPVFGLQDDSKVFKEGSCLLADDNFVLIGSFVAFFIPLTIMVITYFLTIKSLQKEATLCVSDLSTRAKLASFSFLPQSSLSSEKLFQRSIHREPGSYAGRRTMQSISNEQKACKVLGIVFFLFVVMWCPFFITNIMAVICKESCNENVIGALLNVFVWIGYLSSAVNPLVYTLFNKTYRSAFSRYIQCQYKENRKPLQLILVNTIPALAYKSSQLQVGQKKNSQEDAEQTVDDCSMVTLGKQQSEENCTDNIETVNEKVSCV
The subject of data set [3] is Mus musculus. In words: Antagonist activity at mesolimbic dopaminergic D2 receptor in Swiss albino Mus musculus (mouse) assessed as inhibition of apomorphine-induced cage climbing behavior at 10 mg/kg, ip administered 1 hr prior to apomorphine challenge measured after 30 min relative to vehicle-treated control. Type of data set: functional. The following applies: route intraperitoneal.

In data set [4] the test system is Mus musculus. Put plainly: In vivo inhibition of dopaminergic D2 receptor in Swiss albino Mus musculus (mouse) at 10 mg/kg, ip relative to vehicle-treated control. Type of data set: functional. As to conditions: route intraperitoneal.
Data set [5] relates to Mus musculus. In words: Antagonist activity at central serotonergic 5-HT2A receptor in Swiss albino Mus musculus (mouse) assessed as inhibition of quipazine meleate-induced head twiches at 10 mg/kg, ip administered 1 hr prior to quipazine meleate challenge measured after 30 to 40 min relative to vehicle-treated control. Type of data set: functional. As to conditions: route intraperitoneal.

Data set [6] concerns the target D(2) dopamine receptor (Rattus norvegicus) (UniProt P61169). In words: Displacement of [3H]spiperone from D2 receptor in Rattus norvegicus (rat) straitum membrane homogenates at 100 uM after 60 min by liquid scintillation counting analysis.
For data set [7], the system named is Mus musculus. Put plainly: Antagonist activity at nigrostriatal dopaminergic D2 receptor in Swiss albino Mus musculus (mouse) assessed as maximum average cataleptic time at 10 mg/kg, ip after 1 to 5 hr relative to vehicle-treated control. Also noted: dose 10 mg/kg, route intraperitoneal. The following applies: in vivo. Type of data set: organism-based.
Data set [8] relates to Mus musculus. In words: In vivo inhibition of 5-HT2A receptor in Swiss albino Mus musculus (mouse) at 10 mg/kg, ip relative to vehicle-treated control. Type of data set: functional. As to conditions: route intraperitoneal.
Data set [9] relates to Mus musculus. Put plainly: Antagonist activity at mesolimbic dopaminergic D2 receptor in Swiss albino Mus musculus (mouse) assessed as inhibition of apomorphine-induced cage climbing behavior at 10 mg/kg, ip administered 1 hr prior to apomorphine challenge measured after 20 min relative to vehicle-treated control. Type of data set: functional. As to conditions: route intraperitoneal.

Data set [10] deals with 5-hydroxytryptamine receptor 2A (Rattus norvegicus) (UniProt P14842). Put plainly: Displacement of [3H]ketanserin from 5-HT2A receptor in Rattus norvegicus (rat) cortex membrane homogenates up to 1 uM after 90 min by liquid scintillation counting analysis.
In data set [11] the test system is Mus musculus. Put plainly: Selectivity ratio of inhibition of 5-HT2A receptor in Swiss albino Mus musculus (mouse) to inhibition of dopaminergic D2 receptor in Swiss albino Mus musculus (mouse) at 10 mg/kg, ip. Type of data set: functional. The following applies: route intraperitoneal.
The test system of data set [12] is Mus musculus. Put plainly: Antagonist activity at mesolimbic dopaminergic D2 receptor in Swiss albino Mus musculus (mouse) assessed as inhibition of apomorphine-induced cage climbing behavior at 10 mg/kg, ip administered 1 hr prior to apomorphine challenge measured after 10 min relative to vehicle-treated control. Type of data set: functional. As to conditions: route intraperitoneal.

Chain of D(2) dopamine receptor (Rattus norvegicus) (P61169 whole entry): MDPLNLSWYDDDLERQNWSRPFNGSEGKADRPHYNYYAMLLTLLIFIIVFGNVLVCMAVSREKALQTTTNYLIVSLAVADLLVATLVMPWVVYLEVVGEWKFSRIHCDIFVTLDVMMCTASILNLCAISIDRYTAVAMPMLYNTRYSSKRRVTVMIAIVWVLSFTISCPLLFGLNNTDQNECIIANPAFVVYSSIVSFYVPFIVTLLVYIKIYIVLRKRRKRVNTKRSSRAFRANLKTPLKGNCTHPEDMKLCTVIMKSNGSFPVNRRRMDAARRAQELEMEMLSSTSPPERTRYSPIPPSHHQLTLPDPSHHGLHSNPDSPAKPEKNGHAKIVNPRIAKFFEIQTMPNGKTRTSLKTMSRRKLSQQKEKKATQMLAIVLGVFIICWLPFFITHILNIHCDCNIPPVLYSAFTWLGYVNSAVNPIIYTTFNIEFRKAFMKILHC

On to `Nc1nc(-c2ccc(CCN3CCN(c4nc5ccccc5nc4Cl)CC3)cc2)cs1`, for which the inhibition result in data set [1] and in data set [10] was “inactive” each time. The inhibition in data set [2] worked out at 4%; in [6] it was 0%. The inhibition in vivo at 10 mg/kg in the data set on Mus musculus [3] is 70%; in the data set with Mus musculus [5] it was 79%; with Mus musculus [8] it was 79%; in the data set on Mus musculus [9], 60%; in the data set on Mus musculus [12], 65%. The Imax in the data set with Mus musculus [4] stood at 70%. For the same molecule, the Time in the data set on Mus musculus [7] turned out to be 18.24 s. Also, the Selectivity ratio in the data set with Mus musculus [11] is 1.129.
As for `Cc1sc(N)nc1-c1ccc(CCN2CCN(c3nc4ccccc4nc3Cl)CC2)cc1`, the inhibition result in [1] and in [10] was “inactive” in each case. Further, the inhibition in data set [2] and in data set [6] was 0% throughout. Also, the inhibition in vivo at 10 mg/kg with Mus musculus [3] worked out at 65%; in the data set on Mus musculus [5] it was 86%; with Mus musculus [8] it was 86%; with Mus musculus [9] it was 80%; with Mus musculus [12], 80%. Besides, the Imax in the data set on Mus musculus [4] came to 80%. The Time in the data set with Mus musculus [7] is reported as 23.5 s. Besides, the Selectivity ratio in the data set on Mus musculus [11] came to 1.075.
`Cc1nc(-c2ccc(CCN3CCN(c4cnc5ccccc5n4)CC3)cc2)c(C)s1`: the inhibition result in data set [1] and in data set [10] was “inactive” in each case. Also, the inhibition in vivo at 10 mg/kg in the data set with Mus musculus [3] stood at 70%; with Mus musculus [5], 32%; in the data set with Mus musculus [8], 32%; in the data set on Mus musculus [9], 50%; in the data set on Mus musculus [12] it was 25%. In addition, the Imax in the data set with Mus musculus [4] is 70%. Moreover, the Time in the data set with Mus musculus [7] came out at 9.32 s. Besides, the Selectivity ratio with Mus musculus [11] is reported as 0.4571.
As to `CNc1nc(-c2ccc(CCN3CCN(c4nc5ccccc5nc4OC)CC3)cc2)c(C)s1`, the inhibition result in data set [1] and in data set [10] was “inactive” throughout. Further, the inhibition in vivo at 10 mg/kg is 70% in the data set with Mus musculus [3]; 80% with Mus musculus [5]; 80% with Mus musculus [8]; 50% in the data set on Mus musculus [9]; 60% in the data set with Mus musculus [12]. In the data set on Mus musculus [4], this molecule returned an Imax of 70%. For the same molecule, the Time with Mus musculus [7] was 3.12 s. Besides, the Selectivity ratio in the data set on Mus musculus [11] was 1.143.
Regarding `COc1nc2ccccc2nc1N1CCN(CCc2ccc(-c3nc(N)sc3C)cc2)CC1`, the inhibition result in data set [1] and in data set [10] was “inactive” throughout. Moreover, the inhibition in vivo at 10 mg/kg in the data set with Mus musculus [3] was 65%; in the data set on Mus musculus [5], 60%; with Mus musculus [8] it was 60%; in the data set with Mus musculus [9], 80%; with Mus musculus [12] it was 65%. This molecule came in with an Imax with Mus musculus [4] of 80%. The Time in the data set with Mus musculus [7] was found to be 10.78 s. Besides, the Selectivity ratio in the data set with Mus musculus [11] is 0.75.
Regarding `Cc1nc(-c2ccc(CCN3CCN(c4nc5ccccc5nc4Cl)CC3)cc2)c(C)s1`, the inhibition result in data set [1] and in data set [10] was “inactive” throughout. In addition, the inhibition in data set [2] came out at 31%; in data set [6], 0%. Also, the inhibition in vivo at 10 mg/kg is 80% in the data set on Mus musculus [3]; 51% in the data set on Mus musculus [5]; 51% in the data set on Mus musculus [8]; 60% with Mus musculus [9]; 60% in the data set on Mus musculus [12]. In the data set on Mus musculus [4], this molecule showed an Imax of 80%. Further, the Time in the data set with Mus musculus [7] turned out to be 9.25 s. In addition, the Selectivity ratio with Mus musculus [11] came to 0.6375.
For `COc1nc2ccccc2nc1N1CCN(CCc2ccc(-c3csc(O)n3)cc2)CC1`, the inhibition entry in data set [1] and in data set [10] was “inactive” in each case. Besides, the inhibition in data set [2] is 28%; in data set [6], 0%. For the same molecule, the inhibition in vivo at 10 mg/kg worked out at 60% with Mus musculus [3]; 67% in the data set on Mus musculus [5]; 67% with Mus musculus [8]; 60% in the data set with Mus musculus [9]; 65% in the data set with Mus musculus [12]. The Imax in the data set with Mus musculus [4] is listed as 65%. In addition, in the data set on Mus musculus [7], the Time is recorded as 7.9 s. For the same molecule, the Selectivity ratio in the data set on Mus musculus [11] turned out to be 1.031.
Consider `Cc1sc(N)nc1-c1ccc(CCN2CCN(c3cnc4ccccc4n3)CC2)cc1`, for which the inhibition entry in data set [1] and in data set [10] was “inactive” each time. In addition, the inhibition was 58% in data set [2] and 0% in data set [6]. For the same molecule, the inhibition in vivo at 10 mg/kg worked out at 60% with Mus musculus [3]; 31% in the data set with Mus musculus [5]; 31% in the data set on Mus musculus [8]; 80% with Mus musculus [9]; 95% in the data set with Mus musculus [12]. Also, the Imax in the data set on Mus musculus [4] is given as 95%. Also, the Time with Mus musculus [7] is given as 2.64 s. In addition, the Selectivity ratio with Mus musculus [11] came to 0.3263.
For the molecule `CNc1nc(-c2ccc(CCN3CCN(c4nc5ccccc5nc4Cl)CC3)cc2)cs1`, the inhibition result in [1] and in data set [10] was “inactive” throughout. Also, the figures for the inhibition in data set [2] and in data set [6] were 14% and 0%, respectively. The inhibition in vivo at 10 mg/kg in the data set with Mus musculus [3] amounted to 80%; in the data set on Mus musculus [5], 41%; in the data set on Mus musculus [8], 41%; in the data set on Mus musculus [9] it was 80%; in the data set on Mus musculus [12] it was 60%. Besides, the Imax in the data set on Mus musculus [4] was 80%. Further, in the data set on Mus musculus [7], the Time was 3.96 s. Moreover, the Selectivity ratio in the data set with Mus musculus [11] is listed as 0.5125.
On to `Oc1nc(-c2ccc(CCN3CCN(c4cnc5ccccc5n4)CC3)cc2)cs1`, for which the inhibition result in [1] and in data set [10] was “inactive” each time. Also, the inhibition in data set [2] was 22%; in [6], 0%. The inhibition in vivo at 10 mg/kg with Mus musculus [3] stood at 65%; in the data set with Mus musculus [5], 80%; with Mus musculus [8] it was 80%; in the data set with Mus musculus [9], 65%; in the data set on Mus musculus [12], 60%. The same molecule came in with an Imax in the data set on Mus musculus [4] of 65%. For the same molecule, the Time in the data set with Mus musculus [7] amounted to 3.19 s. Further, the Selectivity ratio with Mus musculus [11] amounted to 1.231.
Turning to `CNc1nc(-c2ccc(CCN3CCN(c4cnc5ccccc5n4)CC3)cc2)cs1`, the inhibition entry in [1] and in data set [10] was “inactive” each time. Also, the inhibition in data set [2] came out at 57%; in data set [6] it was 0%. Also, the inhibition in vivo at 10 mg/kg with Mus musculus [3] worked out at 60%; in the data set with Mus musculus [5], 36%; in the data set with Mus musculus [8] it was 36%; with Mus musculus [9], 50%; in the data set with Mus musculus [12] it was 25%. In the data set on Mus musculus [4], the Imax is 60%. Further, the Time with Mus musculus [7] came to 9.32 s. Moreover, the Selectivity ratio with Mus musculus [11] stood at 0.6.
Take `COc1nc2ccccc2nc1N1CCN(CCc2ccc(-c3nc(C)sc3C)cc2)CC1`: the inhibition entry in data set [1] and in [10] was “inactive” in each case. The inhibition in vivo at 10 mg/kg with Mus musculus [3] was found to be 65%; in the data set with Mus musculus [5] it was 65%; in the data set with Mus musculus [8] it was 65%; with Mus musculus [9] it was 70%; with Mus musculus [12], 85%. Also, in the data set on Mus musculus [4], the Imax is given as 85%. For the same molecule, in the data set on Mus musculus [7], the Time turned out to be 11.25 s. For the same molecule, the Selectivity ratio in the data set on Mus musculus [11] turned out to be 0.7647.
As to `Oc1nc(-c2ccc(CCN3CCN(c4nc5ccccc5nc4Cl)CC3)cc2)cs1`, the inhibition result in [1] and in [10] was “inactive” each time. For the same molecule, the inhibition in data set [2] and in data set [6] was 0% in each case. Besides, the inhibition in vivo at 10 mg/kg worked out at 50% in the data set with Mus musculus [3]; 58% with Mus musculus [5]; 58% with Mus musculus [8]; 60% in the data set with Mus musculus [9]; 60% with Mus musculus [12]. In the data set on Mus musculus [4], the Imax worked out at 60%. For the same molecule, the Time with Mus musculus [7] worked out at 28.25 s. Further, the Selectivity ratio in the data set with Mus musculus [11] is given as 0.9667.
As to `CNc1nc(-c2ccc(CCN3CCN(c4cnc5ccccc5n4)CC3)cc2)c(C)s1`, the inhibition entry in data set [1] and in data set [10] was “inactive” throughout. Also, the inhibition in vivo at 10 mg/kg was 65% with Mus musculus [3]; 55% with Mus musculus [5]; 55% in the data set with Mus musculus [8]; 75% in the data set on Mus musculus [9]; 60% in the data set with Mus musculus [12]. In the data set on Mus musculus [4], this molecule came in with an Imax of 75%. The Time in the data set with Mus musculus [7] is 3.88 s. Also, the Selectivity ratio with Mus musculus [11] was 0.7333.

By inhibition is commonly meant the drop in the measured response relative to a control, in per cent. As usually defined, the inhibition in vivo is the percentage by which the read-out fell short of the control.
